From PMC6006164, “Natural cyclopeptide RA-V inhibits the NF-κB signaling pathway by targeting TAK1” (Cell Death & Disease, 2018)

Legend:
IL-8 production = assay: TNF-α-induced IL-8 production, ELISA; format: cell-based; conditions: HeLa; RA-V 12 h, 10 ng/mL TNF-α 2 h; ELISA of supernatant; dose-dependent
Method: Fig. 1 RA-V inhibits TNF-α- and LPS-induced activation of NF-κB. a Chemical structure of RA-V. b RA-V inhibited the NF-κB signaling pathway in a dose-dependent manner. HEK293T or HeLa cells were transfected with the 5 × κB-luciferase and pTK-Renilla reporters. Twenty-four hours after transfection, the cells were incubated with various concentrations of RA-V for 6 h, and then treated with 10 ng/mL TNF-α for 2 h before the luciferase activity assay and MTT assay. c RA-V reduced TNF-α-induced expression of NF-κB target genes. HEK293T or HeLa cells were treated with various concentrations of RA-V for 24 h and stimulated with 10 ng/mL TNF-α for 2 h. The expression of the NF-κB target genes, IL-8, MCP-1, and E-selectin was measured by quantitative RT-PCR and normalized to GADPH expression. d RA-V inhibited TNF-α-induced p65 phosphorylation, IκBα phosphorylation and IκBα degradation. HEK293T or HeLa cells were incubated with various concentrations of RA-V for 24 h and treated with 10 ng/mL TNF-α for 10 min. The cell lysates were prepared and subjected to western blot analysis with the indicated antibodies. e RA-V inhibited TNF-α-induced IL-8 production. […] The expression of IL-6 was measured. h RA-V inhibited LPS-induced p65 phosphorylation, IκBα phosphorylation. […] The protein expression was measured. i RA-V inhibited LPS-induced IL-6 production. […] The expression of IL-6 was measured.

NF-κB-regulated reporter = assay: NF-κB reporter induced by transfected TRAF2, MyD88, IKKβ or p65 plasmid; format: cell-based; conditions: HEK293T; RA-V 48 h
Method: To determine where RA-V acts in this pathway, TRAF2, MyD88, IKKβ, or p65 plasmid was transiently transfected into HEK293T cells together with the 5 × κB-lucieferase and pTK-Renilla reporters. […] Western blots were performed to investigate the effect of RA-V on NF-κB-associated proteins in HEK293T cells transfected with the TRAF2, MyD88, or IKKβ plasmid. […] Moreover, we used a computational method to predict where RA-V is likely to act in this pathway.
Fig. 3 RA-V represses NF-κB activation upstream of the IKK protein complex. a RA-V inhibited the TRAF2- and MyD88-induced expression of the NF-κB reporter in a dose-dependent manner. The indicated plasmids were transfected into HEK293T cells together with the 5 × κB-luciferase and pTK-Renilla reporters. Twenty-four hours after transfection, the cells were incubated with various concentrations of RA-V for 48 h before luciferase assays were performed. b RA-V inhibited TRAF2- and MyD88-induced p65 phosphorylation and IκBα phosphorylation in a dose-dependent manner. HEK293T cells were transfected with TRAF2, MyD88, IKKβ, or p65 for 24 h and then treated with various concentrations of RA-V for 48 h. The cell lysates were immunoblotted with the indicated antibodies. c RA-V likely exerts its inhibitory activity on the NF-κB pathway by acting on the TRAF6-TAK1–TAB1/2 complex. […]

HepG2 xenograft tumors = assay: HepG2 xenograft in nude mice; format: in vivo, female athymic nude BALB/c mice
Method: Fig. 7 RA-V inhibits tumor growth and the expression of NF-κB target genes in a nude xenograft model. a–d Inhibition of the growth of HCT116 and HepG2 xenograft tumors by RA-V. Female athymic nude BALB/c mice bearing HCT116 (n = 8) or HepG2 (n = 7) xenograft tumors were intravenously injected with various concentrations of RA-V micelles or control micelles every other day. 5-FU (10 mg/kg) group as positive control. Effects of RA-V on the growth curves of subcutaneoue xenografts of HCT116 (a) and HepG2 (b) and effects on the tumor weight in the HCT116 (c) and HepG2 (d) models. e–f Tumors removed were photographed. g–h The expression of the NF-κB target genes, IL-8, MCP-1, and CXCL-1, in HCT116 (g) and HepG2 (h) tumor tissue from vehicle- and various concentrations of RA-V-treated group was determined by quantitative RT-PCR and normalized to GADPH expression. *, p < 0.05; **, p < 0.01; ***, p < 0.001
In total, 2 × 10^6 HCT116 or 3 × 10^6 HepG2 cells were subcutaneously injected into the right dorsal flank of 6- to 8-week-old female athymic nude BALB/c mice. After tumor volumes reached 100 mm^3, the tumor-bearing mice were randomly divided into several groups. The mice bearing HCT116 (n = 8) or HepG2 xenograft tumors (n = 7) were received the intravenous injection of vehicle micelles or various concentrations of RA-V micelles every other day. 5-FU (10 mg/kg) group as positive control. Body weights and tumor volumes were recorded every other day. Tumor volumes were calculated using the following formula: tumor volume (mm^3) = 0.52 × length × width^2. At the end of the experiments, the mice were killed. Tumor xenografts of each mouse were removed and weighed. Part of each tumor tissue was stored at liquid nitrogen for quantitative RT-PCR analysis. […] Serum alanine transaminase(ALT), aspartate transaminase(AST), and creatine kinase(CK) were determined using relevant kits (Nanjing Jiancheng) according to the manufacturer’s specific instructions.

[1] = HepG2, n = 7, RA-V micelles i.v. every other day, vs control

RA-V
TNF-α-induced production of IL-8 (IL-8 production): inhibited
NF-κB-regulated reporter expression in cells transfected with IKKβ or p65 (NF-κB-regulated reporter): no effect
NF-κB-regulated reporter expression in cells transfected with TRAF2 or MyD88 (NF-κB-regulated reporter): dose-dependently suppressed
tumor growth rate (tumor volume) (HepG2 xenograft tumors; [1]): significantly reduced
tumor weight (HepG2 xenograft tumors; [1]): obviously lower
expression of IL-8, MCP-1, and CXCL-1 in tumor tissue (HepG2 xenograft tumors; HepG2 xenograft, quantitative RT-PCR): remarkable decreased
